Values quoted from earlier work as cited in US20090317487A1, “KITS FOR PREVENTION AND TREATMENT OF RHINITIS” (priority 2006, published 2009).

Tested on: infectious rhinitis (common cold)
Settings: patients; literature studies (Mossad 1996, Prasad 2000, Farr 1987)

SMILES | effect on severity and/or duration of infectious rhinitis (common cold)
CC(=O)[O-].CC(=O)[O-].[Zn+2] [zinc acetate] | reduced duration of infection
[Zn] [zinc] | significant effect on the severity and duration of infectious rhinitis
